Tests used:
[1] = target: T1, PKCα (Homo sapiens, UniProt P17252); type: cell-based; conditions: HeLa, one hour; for PKCα translocation from the cytoplasm to the plasma membrane: TPA 100 ng/mL, bryostatin-1 5 pg/mL, PEP003 2.25 μg/mL (5 μM), PEP005 (1.5 μM)
T1 construct: host or cells: HeLa cells
Protocol: (§1) Five EGFP-PKC isoforms (Clontech) were available for this experiment, enabling the screening of the three predominant PKC families (i.e. classical, novel and a typical PKCs). The members of the various PKC families are α, β, and γ (classical), θ (novel) and ζ (atypical).
(§2) HeLa cells were plated out in a 24-well plate containing coverslips and transfected with PKC isoforms fused to EGFP, using a commercially available effectine-transfection kit (QIAGEN, Pty. Ltd.). Cells were exposed to the transfection reagents for 16-24 hr. Subsequently, transfected cells were treated for one hour with TPA (100 ng/mL), bryostatin-1 (5 pg/mL), PEP003 (2.25 μg/mL; 5 μM) or PEP005 ([…]) 1.5 μM). Following treatment, cells were fixed on coverslips and mounted on glass slides. The slides were subsequently examined visually by fluorescence microscopy, photographed, and over 150 cells were counted/treatment/PKC isoform. Counted cells were classified according to the localisation of the PKC-EGFP fluorescence as either cytoplasmic or plasma membrane using ImagePro™ 4.1 (FIG. 5). […] The number of these cells was also counted.

[2] = target: T2, PKCβ (Homo sapiens, UniProt P05771); test: EGFP-PKC isoform translocation in HeLa cells; type: cell-based; conditions: one hour; for PKCβ translocation from the cytoplasm to the plasma membrane: TPA 100 ng/mL, bryostatin-1 5 pg/mL, PEP003 2.25 μg/mL (5 μM), PEP005 670 μg/mL (1.5 μM)
T2 construct: host or cells: HeLa cells
Protocol: as §1
as §2, with “counted. Results are presented as an average and standard deviation of percentages of cells (Table 1).” for “counted.”

[3] = target: T3, PKCγ (Homo sapiens, UniProt P05129); test: EGFP-PKC isoform translocation in HeLa cells; type: cell-based; conditions: one hour; for PKCγ translocation from the cytoplasm to the plasma membrane: TPA 100 ng/mL, bryostatin-1 5 pg/mL, PEP003 2.25 μg/mL (5 μM), PEP005 670 μg/mL (1.5 μM)
T3 construct: host or cells: HeLa cells
Protocol: as §1
as §2, with “counted. Results are presented as an average and standard deviation of percentages of cells (Table 1).” for “counted.”

[4] = target: T4, PKCζ (Homo sapiens, UniProt Q05513); test: EGFP-PKC isoform translocation in HeLa cells; type: cell-based; conditions: one hour, TPA 100 ng/mL, bryostatin-1 5 pg/mL, PEP003 2.25 μg/mL (5 μM), PEP005 670 μg/mL (1.5 μM)
T4 construct: host or cells: HeLa cells
T4 sequence (Q05513 1-592): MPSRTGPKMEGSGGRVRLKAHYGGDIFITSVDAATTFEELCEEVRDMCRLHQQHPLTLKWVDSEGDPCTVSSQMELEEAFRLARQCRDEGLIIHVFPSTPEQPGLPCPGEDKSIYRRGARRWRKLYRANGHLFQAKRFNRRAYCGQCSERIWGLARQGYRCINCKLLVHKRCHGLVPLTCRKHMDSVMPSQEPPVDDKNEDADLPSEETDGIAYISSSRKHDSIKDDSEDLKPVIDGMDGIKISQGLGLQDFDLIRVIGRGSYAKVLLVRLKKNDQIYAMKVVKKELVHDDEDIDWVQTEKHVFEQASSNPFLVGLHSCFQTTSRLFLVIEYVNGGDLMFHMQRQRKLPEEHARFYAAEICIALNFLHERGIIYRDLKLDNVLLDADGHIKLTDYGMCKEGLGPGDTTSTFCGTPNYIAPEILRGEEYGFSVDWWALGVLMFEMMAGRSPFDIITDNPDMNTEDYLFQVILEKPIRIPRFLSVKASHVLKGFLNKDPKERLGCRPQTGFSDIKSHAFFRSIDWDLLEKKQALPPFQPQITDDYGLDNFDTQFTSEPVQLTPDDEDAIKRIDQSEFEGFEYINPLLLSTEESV
Protocol: as §1
as §2, with “counted. Results are presented as an average and standard deviation of percentages of cells (Table 1).” for “counted.”

[5] = target: T5, PKCθ (Homo sapiens, UniProt Q04759); test: EGFP-PKC isoform translocation in HeLa cells; type: cell-based; conditions: one hour, TPA 100 ng/mL, bryostatin-1 5 pg/mL, PEP003 2.25 μg/mL (5 μM)
T5 construct: host or cells: HeLa cells
Protocol: as §1
as §2, with “counted. Results are presented as an average and standard deviation of percentages of cells (Table 1).” for “counted.”

[6] = test system: peripheral blood mononuclear cells (PBMCs); test: Phagocytosis with fluorescent beads; type: cell-based; conditions: whole heparinized blood, 30 min at 37° C.
Protocol: Phagocytosis by peripheral blood mononuclear cells (PBMCs) was assayed (Steinkamp et al., 1982) using 1 μm Fluoresbrite™ yellow-green fluorescent latex spheres (Polysciences, Inc., Warrington, Pa.). A sample of whole, heparinized blood was treated with drug and 5×10E7 fluorescent latex beads in 10 μL of PBS added per mL of suspension. Cells were incubated and maintained in suspension for 30 min by means of a shaker platform at 37° C. The stimulated and non-stimulated samples were then lysed to isolate PBMCs. The PBMCs were run on the flow cytometer measuring FITC (excitation at 488 nm, emission at 525±20 nm), gated for fluorescence (phagocytosed spheres) and light scatter (cell size).

[7] = test system: adenovirus 5; test: Adenovirus replication in human melanoma cells (immunohistochemical detection); type: cell-based; conditions: 295 ng/mL; 2 days
Text: Human melanoma cells were infected with ten-fold dilutions of adenovirus 5 in culture, treated with dilutions of PEP005, PEP006, PEP008 and PEP010 and adenovirus replication determined 2 days later by immunhistochemical detection of virus-replicating cells.

[8] = test system: rat brain PKC; test: PKC kinase activity, PepTag Non-Radioactive Protein Kinase Kit; type: biochemical; conditions: FIG. 1; TPA various dilutions (lanes 3, 4 and 5); ether extract at final dilution of 1 in 5 relative to the sap; crude sap and aqueous layer diluted 1/25
Protocol: The kinase activity of rat brain PKC (Promega) was determined using the Peptag™ Non-Radioactive Protein Kinase Kit (Promega). Using agarose gel electrophoresis the technique visualises the opposing electrostatic charge of a fluorescently labeled peptide ([sequence]) compared to the phosphorylated version of the same peptide.
The reaction mixture was separated by gel electrophoresis, showing migration of the unreacted substrate (a) to the anode (top), and the product (b), which is more negatively charged because of phosphorylation by PKC, moving towards the cathode (bottom).

[9] = test system: latently HIV-1 infected cell line (U1); test: Activation of latent HIV from U1 cells (p24 ELISA); type: cell-based, HIV-1 LAI strain; conditions: 20 hr culture
Text: A latently HIV-1 infected cell line (U1), derived from the promonocytic cell line U937 after infection with HIV-1 LAI strain, was used in these experiments. In the absence of activation, no or little virus (measured as p24 production) is produced by the U1 cell line. Phorbol esters are known to activate virus production from these cells (Tobiume et al., 1998) and so TPA/PMA was used as a positive control in these experiments.
Supernatants were collected and viral replication monitored by determination of the amounts of HIV p24 gag protein in the culture supernatants by ELISA, using a NEN Life Science HIV-1 p24 ELISA kit. p24 values were calculated from OD values using a standard curve.

[10] = test system: Burkitt's lymphoma cell lines (MutuI and BL74); test: EBV activation, VCA on western blots, Burkitt's lymphoma cell lines; type: cell-based
Protocol: Initially the effect of PEP003 and PEP004 was tested on the B95-8 cell line (an EBV positive marmoset cell line that is used worldwide as one of the best EBV producers). This cell line was treated with each of these compounds (at different concentrations) for 3 days and 7 days, respectively, and activation of EBV virus production was measured by the appearance of a viral capsid antigen (VCA) on western blots. Also, as a comparison, EBV was activated in this cell line with TPA.
To ensure that equal amounts of each sample were analyzed, the gels were stained with Coomassie blue and the loadings were adjusted to make them equal. […] Next the PEP003 and PEP004 were assayed on two Burkitt's lymphoma cell lines and an LCL. This time only concentrations of 10^−5 and 10^−7 were used.

[11] = test system: latent HIV in monocytes; conditions: Tobiume et al., 1998; cited from earlier work
[12] = test system: CMV promoter; conditions: Christenson et al., 1999; cited from earlier work
[13] = test system: phorbol ester binding site of PKC; test: [3H]-phorbol dibutyrate competition assay on rat brain homogenate; conditions: co-incubation
Protocol: A competition assay was performed to determine whether the diterpene esters of the instant invention bind to the phorbol ester binding site of PKC. […] This binding was not blocked by co-incubation with bisindolylmaleimide.

[14] = test system: Peripheral blood mononuclear cells (PBMC); test: Respiratory burst, H2O2 production by DCFH-DA flow cytometry; type: cell-based; conditions: 10 μg/mL or 1 μg/mL, added at the same time as the test compounds
Protocol: Experiments were also carried out using 2′,7′-dichlorofluorescein diacetate (DCFH-DA) to measure the production of H2O2.(J P Robinson, Oxidative burst methods, in Handbook of Flow Cytometry Methods, Wiley-Liss Inc, pp 147-149, 1993). H2O2 oxidizes the non-fluorescent probe (DCFH-DA) to a fluorescent probe that can then be detected by a flow cytometer. Peripheral blood mononuclear cells (PBMC) were extracted from a donor blood sample by lysis of heparinized blood and used in a suspension of 1×10^6/mL of phosphate buffer, pH 7.3. The cells were then incubated, with DCFH-DA (1 μL/mL of 20 mM stock) for 15 minutes to allow it to be taken up and trapped by hydrolysis with cellular esterases. The cells were then stimulated by test compounds for 15 min at 37° C. Controls included in the experiment were unloaded control (cells with no DCFH-DA) and loaded control (cells with DCFH-DA, but no stimulation). These were used to monitor the non-specific oxidation of unstimulated cells. The cells were then analyzed on the flow cytometer (excitation at 488 nm, emission at 525±20 nm), gating each sample for individual cell populations—granulocytes, monocytes and lymphocytes (Table 3).

T5 sequence (Q04759 whole entry, canonical isoform): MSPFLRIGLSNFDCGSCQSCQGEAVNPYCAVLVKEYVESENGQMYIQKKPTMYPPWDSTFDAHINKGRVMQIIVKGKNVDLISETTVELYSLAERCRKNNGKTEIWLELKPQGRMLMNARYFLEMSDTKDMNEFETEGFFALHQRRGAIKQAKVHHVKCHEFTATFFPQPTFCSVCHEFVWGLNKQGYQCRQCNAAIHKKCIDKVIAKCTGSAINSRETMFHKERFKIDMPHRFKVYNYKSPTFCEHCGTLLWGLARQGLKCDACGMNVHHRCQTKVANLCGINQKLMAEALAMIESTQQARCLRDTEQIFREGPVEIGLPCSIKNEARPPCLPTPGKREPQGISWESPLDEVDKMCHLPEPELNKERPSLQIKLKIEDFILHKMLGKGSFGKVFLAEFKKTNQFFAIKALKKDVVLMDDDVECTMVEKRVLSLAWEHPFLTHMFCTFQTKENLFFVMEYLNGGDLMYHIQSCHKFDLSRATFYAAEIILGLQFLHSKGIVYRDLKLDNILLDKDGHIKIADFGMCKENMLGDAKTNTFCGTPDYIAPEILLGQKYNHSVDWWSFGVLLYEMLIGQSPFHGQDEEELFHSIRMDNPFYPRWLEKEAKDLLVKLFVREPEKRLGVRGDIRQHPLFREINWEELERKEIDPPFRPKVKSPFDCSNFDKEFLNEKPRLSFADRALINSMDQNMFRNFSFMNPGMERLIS
T2 sequence (P05771 whole entry, species assumed, canonical isoform): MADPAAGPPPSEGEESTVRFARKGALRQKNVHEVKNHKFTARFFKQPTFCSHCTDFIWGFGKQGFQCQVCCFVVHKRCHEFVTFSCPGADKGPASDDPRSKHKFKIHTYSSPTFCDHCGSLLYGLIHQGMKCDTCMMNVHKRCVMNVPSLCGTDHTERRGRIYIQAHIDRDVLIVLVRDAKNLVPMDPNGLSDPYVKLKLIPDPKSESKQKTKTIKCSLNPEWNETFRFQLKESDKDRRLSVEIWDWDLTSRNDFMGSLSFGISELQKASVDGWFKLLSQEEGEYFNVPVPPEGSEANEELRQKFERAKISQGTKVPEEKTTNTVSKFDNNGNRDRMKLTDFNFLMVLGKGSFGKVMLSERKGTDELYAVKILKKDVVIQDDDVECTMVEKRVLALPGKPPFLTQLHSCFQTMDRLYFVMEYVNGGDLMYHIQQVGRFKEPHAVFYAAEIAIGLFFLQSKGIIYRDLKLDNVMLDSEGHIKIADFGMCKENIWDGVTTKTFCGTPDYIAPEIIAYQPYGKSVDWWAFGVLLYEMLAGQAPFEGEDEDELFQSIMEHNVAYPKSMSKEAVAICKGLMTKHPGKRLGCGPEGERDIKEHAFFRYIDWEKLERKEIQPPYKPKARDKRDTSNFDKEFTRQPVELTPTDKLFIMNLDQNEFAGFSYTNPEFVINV

Row | Compound | number of PKCα transfected cells displaying Golgi-like fluorescence [1] | PKCα translocation from the cytoplasm to the plasma membrane [1] | number of PKCβ transfected cells with Golgi-like fluorescence [2] | PKCβ translocation from the cytoplasm to the plasma membrane [2] | number of PKCγ transfected cells displaying Golgi-like fluorescence [3] | PKCγ translocation from the cytoplasm to the plasma membrane [3] | PKCζ translocation [4] | PKCθ translocation [5] | phagocytosis of fluorescent latex spheres in PBMCs [6] | activation of PKC [8] | other results
1 | C/C=C(/C)C(=O)O[C@H]1C(C)=C[C@]23C(=O)[C@@H](C=C(CO)[C@@H](O)[C@]12O)[C@H]1[C@@H](C[C@H]3C)C1(C)C [PEP005, Ingenol-3-angelate] | increase in the number of cells displaying Golgi-like fluorescence | translocated from the cytoplasm to the plasma membrane | decreases the number of cells with PKCβ concentrated in the Golgi | translocated from the cytoplasm to the plasma membrane | increase in the number of cells displaying Golgi-like fluorescence | translocated from the cytoplasm to the plasma membrane | fail to induce translocation of PKCζ | does not induce any change in the isoenzymes localization | stimulate phagocytosis | – | –
2 | C/C=C(/C)C(=O)O[C@H]1C(C)=C[C@]23C(=O)[C@H](C=C(C)[C@@H](O)[C@]12O)[C@H]1[C@@H](C[C@H]3C)C1(C)C [PEP006, 20-deoxy-ingenol-3-angelate] | – | – | – | – | – | – | – | – | stimulate phagocytosis | – | increase of adenovirus replication (number of stained cells) [7]: 256%
3 | CCCCCCCCCCCCCC(=O)O[C@@H]1[C@@H](C)[C@@]2(O)[C@@H](C=C(CO)C[C@]3(O)C(=O)C(C)=C[C@@H]23)[C@@H]2C(C)(C)[C@]12OC(C)=O [TPA] | increase in the number of cells displaying Golgi-like fluorescence | translocated from the cytoplasm to the plasma membrane | increase in Golgi-like fluorescence | translocated from the cytoplasm to the plasma membrane | increase in the number of cells displaying Golgi-like fluorescence | translocated from the cytoplasm to the plasma membrane | fail to induce translocation of PKCζ | translocated | stimulate phagocytosis | showed activation of PKC | activation of HIV from U1 cells (p24 production) [9]: activated HIV from U1 cells; induction of VCA in MutuI cells [10]: did not; activation of latent HIV in monocytes [11]: activate latent HIV in monocytes; increase of CMV promoter transcriptional activity [12]: increase this activity
4 | CCC/C=C/C=C/C(=O)O[C@H]1/C(=C/C(=O)OC)C[C@H]2C[C@H]([C@@H](C)O)OC(=O)C[C@H](O)C[C@@H]3C[C@H](OC(C)=O)C(C)(C)[C@](O)(C[C@@H]4C/C(=C/C(=O)OC)C[C@H](/C=C/C(C)(C)[C@]1(O)O2)O4)O3 [bryostatin-1] | – | not with bryostatin-1 | decreases the number of cells with PKCβ concentrated in the Golgi | not with bryostatin-1 | – | – | fail to induce translocation of PKCζ | translocated | – | – | –
5 | bisindolylmaleimide | – | – | – | – | – | – | – | – | – | – | binds to the phorbol ester binding site of PKC [13]: does not; effect of PKC inhibitor on the respiratory burst seen with TPA and PEP003 [14]: blocked the respiratory burst
6 | phosphatidyl serine | – | – | – | – | – | – | – | – | – | strong activation | –
